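Following 48 hours of exposure in 96-well plates, responses at five concentrations were used to interpolate endpoints linearly. TGI is the concentration that stops growth completely.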
Experiments:
Test in all cases: NCI-60 cell line screen, 48 h
HCC-2998 colon = tested on: HCC-2998 colon
HCT-116 colon = tested on: HCT-116 colon
IGROV1 ovarian = tested on: IGROV1 ovarian
MALME-3M melanoma = tested on: MALME-3M melanoma
SF-295 CNS = tested on: SF-295 CNS
SN12C renal = tested on: SN12C renal
U251 CNS = tested on: U251 CNS
SW-620 colon = tested on: SW-620 colon
OVCAR-8 ovarian = tested on: OVCAR-8 ovarian
SK-MEL-2 melanoma = tested on: SK-MEL-2 melanoma
RPMI-8226 leukemia = tested on: RPMI-8226 leukemia
DMS 273 small cell lung = tested on: DMS 273 small cell lung
UACC-257 melanoma = tested on: UACC-257 melanoma
NCI-H460 lung = tested on: NCI-H460 lung
COLO 205 colon = tested on: COLO 205 colon
HCT-15 colon = tested on: HCT-15 colon
OVCAR-5 ovarian = tested on: OVCAR-5 ovarian
SR leukemia = tested on: SR leukemia
CCRF-CEM leukemia = tested on: CCRF-CEM leukemia
M14 melanoma = tested on: M14 melanoma
SF-268 CNS = tested on: SF-268 CNS
SK-OV-3 ovarian = tested on: SK-OV-3 ovarian
XF 498 CNS = tested on: XF 498 CNS
OVCAR-4 ovarian = tested on: OVCAR-4 ovarian
EKVX NSCLC = tested on: EKVX NSCLC
CAKI-1 renal = tested on: CAKI-1 renal
LOX IMVI melanoma = tested on: LOX IMVI melanoma
HOP-62 NSCLC = tested on: HOP-62 NSCLC
LXFL 529 NSCLC = tested on: LXFL 529 NSCLC
SNB-75 CNS = tested on: SNB-75 CNS
SK-MEL-28 melanoma = tested on: SK-MEL-28 melanoma
UO-31 renal = tested on: UO-31 renal
SNB-19 CNS = tested on: SNB-19 CNS
DMS 114 small cell lung = tested on: DMS 114 small cell lung
SNB-78 CNS = tested on: SNB-78 CNS
UACC-62 melanoma = tested on: UACC-62 melanoma
M19-MEL melanoma = tested on: M19-MEL melanoma
SK-MEL-5 melanoma = tested on: SK-MEL-5 melanoma
A549 NSCLC = tested on: A549 NSCLC
SF-539 CNS = tested on: SF-539 CNS
NCI-H522 lung = tested on: NCI-H522 lung
NCI-H23 lung = tested on: NCI-H23 lung
NCI-H226 lung = tested on: NCI-H226 lung
HT29 colon = tested on: HT29 colon
K-562 leukemia = tested on: K-562 leukemia
KM12 colon = tested on: KM12 colon
786-0 renal = tested on: 786-0 renal
MOLT-4 leukemia = tested on: MOLT-4 leukemia
OVCAR-3 ovarian = tested on: OVCAR-3 ovarian
KM20L2 colon = tested on: KM20L2 colon
DLD-1 colon = tested on: DLD-1 colon
A498 renal = tested on: A498 renal
RXF 393 renal = tested on: RXF 393 renal
TK-10 renal = tested on: TK-10 renal
ACHN renal = tested on: ACHN renal
HOP-92 NSCLC = tested on: HOP-92 NSCLC

CC1(C)CC(/C=C2/OC(=O)c3ccccc32)=C(C(N)=O)C(=O)O1
TGI (HCC-2998 colon): > 100 µM | TGI (HCT-116 colon): > 100 µM | TGI (IGROV1 ovarian): > 100 µM | TGI (MALME-3M melanoma): > 100 µM | TGI (SF-295 CNS): > 100 µM | TGI (SN12C renal): > 100 µM | TGI (U251 CNS): > 100 µM | TGI (SW-620 colon): > 100 µM | TGI (OVCAR-8 ovarian): > 100 µM | TGI (SK-MEL-2 melanoma): > 100 µM | TGI (RPMI-8226 leukemia): > 100 µM | TGI (DMS 273 small cell lung): > 100 µM | TGI (UACC-257 melanoma): > 100 µM | TGI (NCI-H460 lung): > 100 µM | TGI (COLO 205 colon): > 100 µM | TGI (HCT-15 colon): > 100 µM | TGI (OVCAR-5 ovarian): > 100 µM | TGI (SR leukemia): > 100 µM | TGI (CCRF-CEM leukemia): > 100 µM | TGI (M14 melanoma): > 100 µM | TGI (SF-268 CNS): > 100 µM | TGI (SK-OV-3 ovarian): > 100 µM | TGI (XF 498 CNS): > 100 µM | TGI (OVCAR-4 ovarian): > 100 µM | TGI (EKVX NSCLC): > 100 µM | TGI (CAKI-1 renal): > 100 µM | TGI (LOX IMVI melanoma): > 100 µM | TGI (HOP-62 NSCLC): > 100 µM | TGI (LXFL 529 NSCLC): > 100 µM | TGI (SNB-75 CNS): > 100 µM | TGI (SK-MEL-28 melanoma): > 100 µM | TGI (UO-31 renal): > 100 µM | TGI (SNB-19 CNS): > 100 µM | TGI (DMS 114 small cell lung): > 100 µM | TGI (SNB-78 CNS): > 100 µM | TGI (UACC-62 melanoma): > 100 µM | TGI (M19-MEL melanoma): > 100 µM | TGI (SK-MEL-5 melanoma): > 100 µM | TGI (A549 NSCLC): > 100 µM | TGI (SF-539 CNS): > 100 µM | TGI (NCI-H522 lung): > 100 µM | TGI (NCI-H23 lung): > 100 µM | TGI (NCI-H226 lung): > 100 µM | TGI (HT29 colon): > 100 µM | TGI (K-562 leukemia): > 100 µM | TGI (KM12 colon): > 100 µM | TGI (786-0 renal): > 100 µM | TGI (MOLT-4 leukemia): > 100 µM | TGI (OVCAR-3 ovarian): > 100 µM | TGI (KM20L2 colon): > 100 µM | TGI (DLD-1 colon): > 100 µM

NC(N)=NS(=O)(=O)c1ccc(NC(=O)c2cccc3cc4ccccc4nc23)cc1
TGI (HCT-116 colon): > 100 µM | TGI (IGROV1 ovarian): > 100 µM | TGI (MALME-3M melanoma): > 100 µM | TGI (A498 renal): > 100 µM | TGI (SF-295 CNS): > 100 µM | TGI (SN12C renal): > 100 µM | TGI (U251 CNS): > 100 µM | TGI (SW-620 colon): > 100 µM | TGI (OVCAR-8 ovarian): > 100 µM | TGI (SK-MEL-2 melanoma): > 100 µM | TGI (RPMI-8226 leukemia): > 100 µM | TGI (DMS 273 small cell lung): > 100 µM | TGI (UACC-257 melanoma): > 100 µM | TGI (NCI-H460 lung): > 100 µM | TGI (COLO 205 colon): > 100 µM | TGI (HCT-15 colon): > 100 µM | TGI (OVCAR-5 ovarian): > 100 µM | TGI (CCRF-CEM leukemia): > 100 µM | TGI (M14 melanoma): > 100 µM | TGI (SF-268 CNS): > 100 µM | TGI (RXF 393 renal): > 100 µM | TGI (SK-OV-3 ovarian): > 100 µM | TGI (XF 498 CNS): > 100 µM | TGI (OVCAR-4 ovarian): 85.7 µM | TGI (EKVX NSCLC): > 100 µM | TGI (CAKI-1 renal): > 100 µM | TGI (LOX IMVI melanoma): > 100 µM | TGI (HOP-62 NSCLC): > 100 µM | TGI (LXFL 529 NSCLC): > 100 µM | TGI (SNB-75 CNS): > 100 µM | TGI (SK-MEL-28 melanoma): > 100 µM | TGI (UO-31 renal): > 100 µM | TGI (SNB-19 CNS): 31.8 µM | TGI (DMS 114 small cell lung): > 100 µM | TGI (SNB-78 CNS): > 100 µM | TGI (UACC-62 melanoma): > 100 µM | TGI (M19-MEL melanoma): > 100 µM | TGI (SK-MEL-5 melanoma): > 100 µM | TGI (A549 NSCLC): > 100 µM | TGI (TK-10 renal): > 100 µM | TGI (SF-539 CNS): > 100 µM | TGI (NCI-H522 lung): > 100 µM | TGI (NCI-H23 lung): > 100 µM | TGI (ACHN renal): > 100 µM | TGI (NCI-H226 lung): > 100 µM | TGI (HT29 colon): > 100 µM | TGI (K-562 leukemia): > 100 µM | TGI (KM12 colon): > 100 µM | TGI (786-0 renal): > 100 µM | TGI (MOLT-4 leukemia): > 100 µM | TGI (OVCAR-3 ovarian): > 100 µM | TGI (KM20L2 colon): > 100 µM | TGI (DLD-1 colon): > 100 µM

O=C1c2ccccc2C(=O)c2c1ccc(O)c2O
TGI (HCC-2998 colon): > 100 µM | TGI (HCT-116 colon): > 100 µM | TGI (IGROV1 ovarian): > 100 µM | TGI (A498 renal): > 100 µM | TGI (SF-295 CNS): > 100 µM | TGI (SN12C renal): > 100 µM | TGI (U251 CNS): > 100 µM | TGI (SW-620 colon): > 100 µM | TGI (OVCAR-8 ovarian): > 100 µM | TGI (SK-MEL-2 melanoma): > 100 µM | TGI (RPMI-8226 leukemia): > 100 µM | TGI (DMS 273 small cell lung): > 100 µM | TGI (UACC-257 melanoma): > 100 µM | TGI (NCI-H460 lung): > 100 µM | TGI (COLO 205 colon): > 100 µM | TGI (HCT-15 colon): > 100 µM | TGI (OVCAR-5 ovarian): > 100 µM | TGI (SR leukemia): > 100 µM | TGI (CCRF-CEM leukemia): > 100 µM | TGI (M14 melanoma): > 100 µM | TGI (SF-268 CNS): > 100 µM | TGI (RXF 393 renal): 88.7 µM | TGI (XF 498 CNS): > 100 µM | TGI (OVCAR-4 ovarian): > 100 µM | TGI (EKVX NSCLC): > 100 µM | TGI (CAKI-1 renal): > 100 µM | TGI (LOX IMVI melanoma): > 100 µM | TGI (HOP-62 NSCLC): > 100 µM | TGI (LXFL 529 NSCLC): > 100 µM | TGI (SNB-75 CNS): 69.2 µM | TGI (SK-MEL-28 melanoma): > 100 µM | TGI (UO-31 renal): > 100 µM | TGI (SNB-19 CNS): > 100 µM | TGI (UACC-62 melanoma): 55.3 µM | TGI (M19-MEL melanoma): > 100 µM | TGI (TK-10 renal): > 100 µM | TGI (SF-539 CNS): > 100 µM | TGI (NCI-H522 lung): > 100 µM | TGI (NCI-H23 lung): > 100 µM | TGI (ACHN renal): > 100 µM | TGI (NCI-H226 lung): > 100 µM | TGI (HT29 colon): > 100 µM | TGI (K-562 leukemia): > 100 µM | TGI (KM12 colon): > 100 µM | TGI (786-0 renal): > 100 µM | TGI (MOLT-4 leukemia): > 100 µM | TGI (OVCAR-3 ovarian): > 100 µM | TGI (DLD-1 colon): > 100 µM | TGI (HOP-92 NSCLC): > 100 µM
